Here are results for 18 compounds from BindingDB's records for PubMed 39651809 (Pfizer Inc.).

A word on the IC50: it is the concentration that inhibits the measured activity by half. A low value points to inhibition by little substance.

The structures appear in SMILES notation.

The experiment can be described thus: Inhibition of SLP76 phosphorylation at Ser376 in human Jurkat cells incubated for 30 mins by HTRF assay. Background: TR-FRET usually uses a lanthanide donor and a delayed reading to cut background.

Turning to `CC(C)n1cnnc1-c1cccc(NC(=O)c2cccc3c2OCC(N)C3)n1` (stereo not drawn), the IC50 amounted to 1080 nM. This counts as single-digit micromolar.

As for `CC(C)n1cnnc1-c1cccc(NC(=O)c2cccc3c2nc(CN)n3C)n1`, inhibition was half-maximal at 1070 nM (IC50).

`CCC(C)n1cnnc1-c1cccc(NC(=O)c2cccc3c2OCC(N)C3)n1` (stereo not drawn) yielded an IC50 of 222 nM.

As to `CC[C@H](C)n1cnnc1-c1cccc(NC(=O)c2cccc3c2nc(CN)n3C)n1`, the IC50 stood at 139 nM.

`CNCc1cc(OC)cc2c1CN(c1cccc(-c3nncn3C(C)C)n1)C2=O` returned an IC50 of 383 nM. Compared with the last compound, the IC50 is about 2.8-fold higher.

Compound `CNCc1cc(OC)cc2c1CN(c1cccc(-c3nncn3[C@@H](C)CC(F)(F)F)n1)C2=O` had an IC50 of 115 nM.

In turn, `COc1ccc2c(c1CN)CN(c1cccc(-c3nncn3[C@@H](C)CC(F)(F)F)n1)C2=O` had an IC50 of 520 nM.

`CNCc1nc(N(C)C)cc2c1CN(c1cccc(-c3nncn3C(C)C)n1)C2=O` [US11142525, Example 1] came in with a half-inhibitory concentration (IC50) of 112 nM.

`CNCc1nc(N(C)C)cc2c1CN(c1cccc(-c3nncn3[C@@H](C)CC(F)(F)F)n1)C2=O` [US11142525, Example 17] displayed an IC50 of 70 nM.

Turning to `CCCn1cnnc1-c1cccc(N2Cc3c(cc(N(C)C)nc3CNC)C2=O)n1` [US11142525, Example 46], the IC50 was found to be 121 nM.

On to `CCCn1cnnc1-c1cccc(N2Cc3c(cc(N4CCC[C@H]4C)nc3CNC)C2=O)n1` [US11142525, Example 55], for which the 50% inhibitory concentration (IC50) was determined as 34 nM.

`CCCn1cnnc1-c1cccc(N2Cc3c(cc(N(C)C(C)C)nc3CNC)C2=O)n1` [US11142525, Example 63]: half-maximal inhibition (IC50) required 87 nM.

`CCCn1c(C)nnc1-c1cccc(N2Cc3c(cc(N(C)C(C)C)nc3CNC)C2=O)n1` [US11142525, Example 64]: the IC50 amounted to 81 nM. The IC50 values of the last two compounds are within 1.5-fold of each other.

Consider `C[C@@H]1CCCN1c1cc2c(c([C@@H](C)N)n1)CN(c1cccc(-c3nnc4n3[C@@H](C)CC4)n1)C2=O` [US11684616, Example 24], for which it took 53 nM to reach half-maximal inhibition (IC50).

`CC[C@@H](N)c1nc(N2CCC[C@H]2C)cc2c1CN(c1cccc(-c3nncn3CC)n1)C2=O` [US11684616, Example 140] came in with an IC50 of 53 nM.

`CC[C@H]1CCc2nnc(-c3cccc(N4Cc5c(cc(N(C)C(C)C)nc5CNC)C4=O)n3)n21` [US11684616, Example 201] returned a concentration for half-maximal inhibition (IC50) of 37 nM.

As to `CNCc1nc(N(C)C(C)C)cc2c1CN(c1cccc(-c3nnc4n3[C@@H](CF)CC4)n1)C2=O` [US11684616, Example 205], the IC50 was 52 nM.

For the compound `CNCc1nc(N(C)C(C)C)cc2c1CN(c1cccc(-c3nnc4n3[C@@H](C)CC4)n1)C2=O` [US11684616, Example 210], the half-maximal inhibitory concentration (IC50) was 47 nM.
